US11452674B2, “Non-solvent dental adhesive composition” (KURARAY NORITAKE DENTAL INC., priority 2017, dated 2022)
Converted amounts (≈) assume the structure as drawn.

Test: Solubility in water at 25° C.
Conditions: 25° C.

Structure (SMILES) | Solubility in water at 25° C.
Cc1cc(C)c(C(=O)P(=O)(O)C(=O)c2c(C)cc(C)cc2C)c(C)c1 [BAPO-ONa, sodium bis(2,4,6-trimethylbenzoyl)phosphine oxide] | 60 mg/mL
CC12CCC(C(=O)C1=O)C2(C)C (stereo not drawn) [CQ, d1-camphorquinone] | 1.7 mg/mL (≈ 10.2 mM)
Cc1cc(C)c(C(=O)P(=O)(c2ccccc2)c2ccccc2)c(C)c1 [TMDPO, 2,4,6-trimethylbenzoykliphenylphosphine oxide, reference compound] | < 1 mg/mL

Same assay, conditions: 25 °C

Structure (SMILES) | solubility
Cc1cc(C)c(C(=O)P(=O)(O)c2ccccc2)c(C)c1 [Li-TPO, lithium (2,4,6-trimethylbenzoyl)phenylphosphine oxide] | 45 mg/mL (≈ 156 mM)

Same assay, conditions: 25 °C, Solubility in water at 25° C.

Structure (SMILES) | solubility
COCCOCCOCC(=O)Nc1c(C)cc(C)c(C(=O)P(=O)(C(=O)c2c(C)cc(C)c(NC(=O)COCCOCCOC)c2C)c2ccccc2)c1C [BAPO-A1, reference compound] | < 10 mg/mL
COCCOCCOC(=O)Nc1c(C)cc(C)c(C(=O)P(=O)(c2ccccc2)c2ccccc2)c1C [TMDPO-A1, reference compound] | < 10 mg/mL
Cc1cc(C)c(C(=O)P(=O)(C(=O)c2c(C)cc(C)cc2C)c2ccccc2)c(C)c1 [BAPO, bis(2,4,6-trimethylbenzoyl)phenylphosphine oxide, reference compound] | < 1 mg/mL
Cc1cc(C)c(C(=O)P(=O)(O)C(=O)c2c(C)cc(C)cc2C)c(C)c1 [BAPO-OLi, lithium bis(2,4,6-trimethylbenzoyl)phosphine oxide] | 52 mg/mL (≈ 145 mM)
Cc1cc(C)c(C(=O)P(=O)(O)c2ccccc2)c(C)c1 [Na-TPO] | 28 mg/mL (≈ 97.1 mM)
